Structures can show the parent of a compound that is named as a salt.
Tested on: not given
Assay: not given
Conditions: not given
With `O=S(=O)(c1cccc(F)c1)n1ccc2c(N3CCNCC3)cccc21` (as salt: trifluoroacetate) [1-(3-fluoro-benzenesulfonyl)-4-piperazin-1-yl-1H-indole] the melting point was 227 to 228 °C (dec.). In the case of `O=S(=O)(c1c(F)cccc1F)n1ccc2c(N3CCNCC3)cccc21` (as salt: trifluoroacetate), the melting point is reported as 223 to 224 °C. `O=S(=O)(c1cc(Cl)cc(Cl)c1)n1ccc2c(N3CCNCC3)cccc21` (as salt: hydrochloride) [1-(3,5-Dichloro-benzenesulfonyl)-4-piperazin-1-yl-1H-indole] showed a melting point of 156 to 157 °C. In the case of `COc1cccc(S(=O)(=O)n2ccc3c(N4CCNCC4)cccc32)c1` (as salt: trifluoroacetate) [1-(3-methoxy-benzenesulfonyl)-4-piperazin-1-yl-1H-indole], the melting point is reported as 221 °C (dec.). For `CC(C)(C)c1ccc(S(=O)(=O)n2ccc3c(N4CCNCC4)cccc32)cc1` (as salt: trifluoroacetate) [1-(4-ter-butyl-benzenesulfonyl)-4-piperazin-1-yl-1H-indole], the melting point was 231 to 232 °C (dec.). Work on `O=S(=O)(c1ccccc1)n1cc(Br)c2c(N3CCNCC3)cccc21` (as salt: hydrochloride) [1-benzenesulfonyl-3-bromo-4-piperazin-1-yl-1H-indole] yielded a melting point of 304 to 305 °C. Work on `O=S(=O)(c1ccc(F)cc1)n1ccc2c(N3CCNCC3)cccc21` (as salt: hydrochloride) [1-(4-fluoro-benzenesulfonyl)-4-piperazin-1-yl-1H-indole] yielded a melting point of 203 to 204 °C. In the case of `O=S(=O)(c1cccs1)n1ccc2c(N3CCNCC3)cccc21` (as salt: trifluoroacetate) [4-piperazin-1-yl-1-(thiophene-2-sulfonyl)-1H-indole], the melting point is reported as 208 to 209 °C. For `CS(=O)(=O)c1ccccc1S(=O)(=O)n1ccc2c(N3CCNCC3)cccc21` (as salt: trifluoroacetate) [1-(2-methanesulfonyl-benzenesulfonyl)-4-piperazin-1-yl-1H-indole], the melting point was 171 °C. With `COc1ccc(OC)c(S(=O)(=O)n2ccc3c(N4CCNCC4)cccc32)c1` (as salt: trifluoroacetate) [1-(2,5-dimethoxy-benzenesulfonyl)-4-piperazin-1-yl-1H-indole] the melting point was 245 to 246 °C (dec.). For `O=S(=O)(c1cccc(Br)c1)n1ccc2c(N3CCNCC3)cccc21` (as salt: hydrochloride), the melting point was 158 to 159 °C. In the case of `N#Cc1cccc(S(=O)(=O)n2ccc3c(N4CCNCC4)cccc32)c1` (as salt: trifluoroacetate) [3-(4-piperazin-1-yl-indole-1-sulfonyl)-benzonitrile], the melting point is reported as 238 °C (dec.). Work on `Cn1cnc(S(=O)(=O)n2ccc3c(N4CCNCC4)cccc32)c1` (as salt: trifluoroacetate) yielded a melting point of 230 to 231 °C. In the case of `CS(=O)(=O)c1ccc(F)c(S(=O)(=O)n2ccc3c(N4CCNCC4)cccc32)c1` (as salt: trifluoroacetate) [1-(2-fluoro-5-methanesulfonyl-benzenesulfonyl)-4-piperazin-1-yl-1H-indole], the melting point is reported as 172 to 173 °C (dec.). `CN1CCN(c2cccc3c2ccn3S(=O)(=O)c2ccc(F)cc2)CC1` (as salt: hydrochloride) [1-(4-fluoro-benzenesulfonyl)-4-(4-methyl-piperazin-1-yl)-1H-indole] showed a melting point of 151 to 152 °C. `CC(C)CS(=O)(=O)c1cccc(S(=O)(=O)n2ccc3c(N4CCNCC4)cccc32)c1` (as salt: trifluoroacetate) [1-[3-(2-methyl-propane-1-sulfonyl)-benzenesulfonyl]-4-piperazin-1-yl-1H-indole] showed a melting point of 220 to 222 °C. With `CCS(=O)(=O)c1cccc(S(=O)(=O)n2ccc3c(N4CCNCC4)cccc32)c1` (as salt: hydrochloride) [1-(3-ethanesulfonyl-benzenesulfonyl)-4-piperazin-1-yl-1H-indole] the melting point was 166 to 167 °C.

Molecular target: T1, recombinant human 5-HT6 receptor (Homo sapiens, UniProt P50406)
T1 construct: expressed in transfected cells; cell membranes used
T1 sequence (P50406 whole entry): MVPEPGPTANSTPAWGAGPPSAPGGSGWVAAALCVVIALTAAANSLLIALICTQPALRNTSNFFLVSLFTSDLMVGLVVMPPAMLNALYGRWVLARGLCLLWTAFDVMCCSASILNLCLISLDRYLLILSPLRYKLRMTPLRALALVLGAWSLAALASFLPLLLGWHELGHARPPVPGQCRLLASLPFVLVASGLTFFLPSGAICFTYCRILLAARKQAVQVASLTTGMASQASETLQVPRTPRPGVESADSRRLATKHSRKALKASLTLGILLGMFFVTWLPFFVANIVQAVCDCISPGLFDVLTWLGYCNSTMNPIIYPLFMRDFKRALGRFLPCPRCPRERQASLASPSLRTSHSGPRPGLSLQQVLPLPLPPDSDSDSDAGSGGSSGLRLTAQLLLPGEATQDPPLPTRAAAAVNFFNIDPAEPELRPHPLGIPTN
Assay: Radioligand binding studies: competition for [3H]LSD binding in membranes of HEK293 cells
Conditions: [3H]LSD (5 nM), HEK293 cell membranes, 60 min at 37° C., pH 7.4
Description: The pharmacology of the compounds of this invention was determined by art recognized procedures.
The binding activity of compounds of this invention in vitro was determined as follows.
Duplicate determinations of ligand affinity are made by competing for binding of [3H]LSD in cell membranes derived from HEK293 cells stably expressing recombinant human 5-HT6 receptor.
All determinations are made in assay buffer containing 50 mM Tris-HCl, 10 mM MgSO4, 0.5 mM EDTA, 1 mM ascorbic acid, pH 7.4 at 37° C., in a 250 microliter reaction volume. Assay tubes containing [3H] LSD (5 nM), competing ligand, and membrane are incubated in a shaking water bath for 60 min. at 37° C., filtered onto Packard GF-B plates (pre-soaked with 0.3% PEI) using a Packard 96 well cell harvester and washed 3 times in ice cold 50 mM Tris-HCl. Bound [3H] LSD is determined as radioactive counts per minute using Packard TopCount.
Displacement of [3H]LSD from the binding sites was quantified by fitting concentration-binding data to a 4-parameter logistic equation: [formula]
where Hill is the Hill slope, [ligand] is the concentration of competing radioligand and IC50 is the concentration of radioligand producing half-maximal specific binding of radioligand. The specific binding window is the difference between the Bmax and the basal parameters.
With `O=S(=O)(c1cccs1)n1ccc2c(N3CCNCC3)cccc21` [4-piperazin-1-yl-1-(thiophene-2-sulfonyl)-1H-indole] the Ki was 0.447 nM. Compound `CS(=O)(=O)c1ccc(F)c(S(=O)(=O)n2ccc3c(N4CCNCC4)cccc32)c1` [1-(2-fluoro-5-methanesulfonyl-benzenesulfonyl)-4-piperazin-1-yl-1H-indole] has a Ki of 13.8 nM. `O=S(=O)(c1cc(Cl)cc(Cl)c1)n1ccc2c(N3CCNCC3)cccc21` [1-(3,5-Dichloro-benzenesulfonyl)-4-piperazin-1-yl-1H-indole] showed a Ki of 0.372 nM. With `O=S(=O)(c1cc(Cl)ccc1Cl)n1ccc2c(N3CCNCC3)cccc21` [1-(2,5-dichloro-benzenesulfonyl)-4-piperazin-1-yl-1H-indole] the Ki was 0.151 nM. `CS(=O)(=O)c1cc(Br)cc(S(=O)(=O)n2ccc3c(N4CCNCC4)cccc32)c1` [1-(3-bromo-5-methanesulfonyl-benzenesulfonyl)-4-piperazin-1-yl-1H-indole] showed a Ki of 7.59 nM. `O=S(=O)(c1cccc2ccccc12)n1ccc2c(N3CCNCC3)cccc21` [1-(Naphthalene-1-sulfonyl)-4-piperazin-1-yl-1H-indole] gave a Ki of 0.158 nM. For `CS(=O)(=O)c1ccc(S(=O)(=O)n2ccc3c(N4CCNCC4)cccc32)cc1` [1-(4-methanesulfonyl-benzenesulfonyl)-4-piperazin-1-yl-1H-indole], the Ki was 42.7 nM. Work on `O=S(=O)(c1ccccc1F)n1ccc2c(N3CCNCC3)cccc21` [1-(2-fluoro-benzenesulfonyl)-4-piperazin-1-yl-1H-indole] yielded a Ki of 0.0525 nM. Work on `CN1CCN(c2cccc3c2ccn3S(=O)(=O)c2ccc(F)cc2)CC1` [1-(4-fluoro-benzenesulfonyl)-4-(4-methyl-piperazin-1-yl)-1H-indole] yielded a Ki of 0.832 nM. In the case of `CCS(=O)(=O)c1cccc(S(=O)(=O)n2ccc3c(N4CCNCC4)cccc32)c1` [1-(3-ethanesulfonyl-benzenesulfonyl)-4-piperazin-1-yl-1H-indole], the Ki is reported as 1.55 nM. With `COc1ccc(S(=O)(=O)n2ccc3c(N4CCNCC4)cccc32)cc1` [1-(4-Methoxy-benzenesulfonyl)-4-piperazin-1-yl-1H-indole] the Ki was 0.447 nM. For `CS(=O)(=O)c1cccc(S(=O)(=O)n2ccc3c(N4CCNCC4)cccc32)c1` [1-(3-methanesulfonyl-benzenesulfonyl)-4-piperazin-1-yl-1Hindole], the Ki was 2.69 nM. Compound `O=S(=O)(c1cccc(C(F)(F)F)c1)n1ccc2c(N3CCNCC3)cccc21` [4-piperazin-1-yl-1-(3-trifluoromethyl-benzenesulfonyl)-1H-indole] has a Ki of 0.2 nM. Compound `O=S(=O)(NC1CC1)c1cccc(S(=O)(=O)n2ccc3c(N4CCNCC4)cccc32)c1` [N-cyclopropyl-3-(4-piperazin-1-yl-indole-1-sulfonyl)-benzenesulfonamide] has a Ki of 1.26 nM. With `COc1cccc(S(=O)(=O)n2ccc3c(N4CCNCC4)cccc32)c1` [1-(3-methoxy-benzenesulfonyl)-4-piperazin-1-yl-1H-indole] the Ki was 0.372 nM. For `COc1ccc(OC)c(S(=O)(=O)n2ccc3c(N4CCNCC4)cccc32)c1` [1-(2,5-dimethoxy-benzenesulfonyl)-4-piperazin-1-yl-1H-indole], the Ki was 0.933 nM. With `O=S(=O)(c1cccc(F)c1)n1ccc2c(N3CCNCC3)cccc21` [1-(3-fluoro-benzenesulfonyl)-4-piperazin-1-yl-1H-indole] the Ki was 0.155 nM. Compound `CN(C)S(=O)(=O)c1cccc(S(=O)(=O)n2ccc3c(N4CCNCC4)cccc32)c1` [NN-dimethyl-3-(4-piperazin-1-yl-indole-1-sulfonyl)-benzenesulfonamide] has a pKi of 8.69. Compound `CCCS(=O)(=O)c1cccc(S(=O)(=O)n2ccc3c(N4CCNCC4)cccc32)c1` [4-piperazin-1-yl-1-[3-(propane-1-sulfonyl)-benzenesulfonyl]-1H-indole] has a Ki of 1.55 nM. For `O=S(=O)(c1ccc(Cl)cc1)n1ccc2c(N3CCNCC3)cccc21` [1-(4-chloro-benzenesulfonyl)-4-piperazin-1-yl-1H-indole], the Ki was 0.537 nM. Work on `O=S(=O)(c1ccccc1)n1cc(Br)c2c(N3CCNCC3)cccc21` [1-benzenesulfonyl-3-bromo-4-piperazin-1-yl-1H-indole] yielded a Ki of 0.123 nM. `CC(C)CS(=O)(=O)c1cccc(S(=O)(=O)n2ccc3c(N4CCNCC4)cccc32)c1` [1-[3-(2-methyl-propane-1-sulfonyl)-benzenesulfonyl]-4-piperazin-1-yl-1H-indole] gave a Ki of 1.91 nM. Compound `N#Cc1cccc(S(=O)(=O)n2ccc3c(N4CCNCC4)cccc32)c1` [3-(4-piperazin-1-yl-indole-1-sulfonyl)-benzonitrile] has a Ki of 1.12 nM. `O=S(=O)(c1cnc(Cl)c(Br)c1)n1ccc2c(N3CCNCC3)cccc21` [1-(5-bromo-6-chloro-pyridine-3-sulfonyl)-4-piperazin-1-yl-1H-indole] showed a Ki of 5.62 nM. With `CC(C)(C)c1ccc(S(=O)(=O)n2ccc3c(N4CCNCC4)cccc32)cc1` [1-(4-ter-butyl-benzenesulfonyl)-4-piperazin-1-yl-1H-indole] the Ki was 3.55 nM. In the case of `CS(=O)(=O)c1ccccc1S(=O)(=O)n1ccc2c(N3CCNCC3)cccc21` [1-(2-methanesulfonyl-benzenesulfonyl)-4-piperazin-1-yl-1H-indole], the Ki is reported as 16.6 nM. `O=S(=O)(c1cccc(Cl)c1)n1ccc2c(N3CCNCC3)cccc21` [1-(3-chloro-benzenesulfonyl)-4-piperazin-1-yl-1H-indole] showed a Ki of 0.11 nM.
